The record followed here is patent publication US20250214991A1 (Oncopia Therapeutics, Inc. d/b/a/ SK Life Science Labs, priority 2022, published 2025).

The target in experiment [1] is CRBN/DDB1 (Homo sapiens (Human), UniProt Q96SW2). The experiment can be described thus: IC50 measurements for binding to CRBN/DDB1 (HTRF). The note with it: His tagged CRBN+DDB, Cy5-labeled Thalidomide probe, one hour. In short, it runs like this: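 Serially diluted compounds compete with a Cy5-labeled thalidomide tracer (60 nM) for His-tagged CRBN-DDB1 (2 nM), detected via anti-6His Tb cryptate (0.4 nM); buffer HEPES pH 7.5 with TCEP, Brij-35, NaCl, BSA. One-hour room-temperature incubation, HTRF signal read, IC50 by four-parameter curve.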
For orientation: In TR-FRET formats the signal depends on donor and acceptor labels being close together.

For experiment [2], the target named is IKZF1 (Homo sapiens (Human), UniProt Q13422+Q96SW2). The experiment can be described thus: In vitro IKZF1 HiBit Assay (HEK293T Flp-in-HiBiT-IKZF1 stable cell line). Conditions: HEK293T Flp-in-HiBiT-IKZF1 stable cell line, 6 hrs incubation; for DC50: read-out: IKZF1 HiBit DC50; for Dmax: HEK-293T, read-out: IKZF1 HiBit Dmax (%). In kind it is cell-based. In short, it runs like this: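 Degradation was measured as loss of luminescence from the HiBiT-IKZF1 tag after 6 h compound treatment, with 0.1% final DMSO, in stable HEK293T Flp-in cells. Values were normalized to DMSO, giving the 50% degradation concentration and the maximal degradation range.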
(In general: HiBiT is a short tag that completes a luciferase, so light tracks the accessible tagged protein.)

Experiment [3] deals with IKZF2 (Homo sapiens (Human), UniProt Q96SW2+Q9UKS7). Briefly: In vitro IKZF2 HiBit Assay (HEK293T Flp-in-HiBiT cells). Format: cell-based. The note with it: HEK293T Flp-in-HiBiT cells, 6 hrs incubation; for DC50: read-out: IKZF2 HiBit DC50; for Dmax: HEK-293T, read-out: IKZF2 HiBit Dmax (%). In short, it runs like this: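 Remaining tagged Helios was read as lytic HiBiT/LgBiT luminescence normalized to DMSO, yielding binned DC50 and Dmax values. Treatment ran 6 h, with compounds at 11 three-fold doses diluted from 1 mM and 0.1% final DMSO. The cells were HEK293T Flp-in with CRISPR knock-in of HiBiT at the IKZF2 N-terminus.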
Sequence of IKZF2 (Q9UKS7 whole entry): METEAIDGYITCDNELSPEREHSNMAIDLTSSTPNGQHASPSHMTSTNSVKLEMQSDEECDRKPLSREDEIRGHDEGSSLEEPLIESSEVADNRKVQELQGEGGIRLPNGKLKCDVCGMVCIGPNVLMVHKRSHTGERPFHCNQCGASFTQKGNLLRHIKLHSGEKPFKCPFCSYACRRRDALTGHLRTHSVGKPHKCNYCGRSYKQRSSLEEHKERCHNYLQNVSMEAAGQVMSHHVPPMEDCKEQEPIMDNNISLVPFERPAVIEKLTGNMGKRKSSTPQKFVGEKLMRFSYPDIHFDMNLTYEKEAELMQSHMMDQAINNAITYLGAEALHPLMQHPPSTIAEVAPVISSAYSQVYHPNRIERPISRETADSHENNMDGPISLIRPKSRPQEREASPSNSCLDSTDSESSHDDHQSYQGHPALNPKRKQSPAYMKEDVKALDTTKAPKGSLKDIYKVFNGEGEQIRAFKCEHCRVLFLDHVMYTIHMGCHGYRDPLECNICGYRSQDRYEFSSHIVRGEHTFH
Sequence of IKZF2 (Q96SW2 whole entry): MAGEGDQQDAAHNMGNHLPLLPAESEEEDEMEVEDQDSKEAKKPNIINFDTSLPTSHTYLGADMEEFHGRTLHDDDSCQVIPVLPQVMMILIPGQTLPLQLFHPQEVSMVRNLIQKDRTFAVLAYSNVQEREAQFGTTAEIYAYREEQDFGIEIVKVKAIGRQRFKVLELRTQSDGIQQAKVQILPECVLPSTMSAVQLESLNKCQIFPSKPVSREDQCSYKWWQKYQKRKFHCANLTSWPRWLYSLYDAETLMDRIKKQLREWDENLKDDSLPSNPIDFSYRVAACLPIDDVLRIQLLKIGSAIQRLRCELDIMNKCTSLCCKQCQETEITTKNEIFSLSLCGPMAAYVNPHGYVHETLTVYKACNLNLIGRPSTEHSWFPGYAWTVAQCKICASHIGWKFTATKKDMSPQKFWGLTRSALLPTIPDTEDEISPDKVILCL
Sequence of IKZF2 (Q16531 2-1140 partner): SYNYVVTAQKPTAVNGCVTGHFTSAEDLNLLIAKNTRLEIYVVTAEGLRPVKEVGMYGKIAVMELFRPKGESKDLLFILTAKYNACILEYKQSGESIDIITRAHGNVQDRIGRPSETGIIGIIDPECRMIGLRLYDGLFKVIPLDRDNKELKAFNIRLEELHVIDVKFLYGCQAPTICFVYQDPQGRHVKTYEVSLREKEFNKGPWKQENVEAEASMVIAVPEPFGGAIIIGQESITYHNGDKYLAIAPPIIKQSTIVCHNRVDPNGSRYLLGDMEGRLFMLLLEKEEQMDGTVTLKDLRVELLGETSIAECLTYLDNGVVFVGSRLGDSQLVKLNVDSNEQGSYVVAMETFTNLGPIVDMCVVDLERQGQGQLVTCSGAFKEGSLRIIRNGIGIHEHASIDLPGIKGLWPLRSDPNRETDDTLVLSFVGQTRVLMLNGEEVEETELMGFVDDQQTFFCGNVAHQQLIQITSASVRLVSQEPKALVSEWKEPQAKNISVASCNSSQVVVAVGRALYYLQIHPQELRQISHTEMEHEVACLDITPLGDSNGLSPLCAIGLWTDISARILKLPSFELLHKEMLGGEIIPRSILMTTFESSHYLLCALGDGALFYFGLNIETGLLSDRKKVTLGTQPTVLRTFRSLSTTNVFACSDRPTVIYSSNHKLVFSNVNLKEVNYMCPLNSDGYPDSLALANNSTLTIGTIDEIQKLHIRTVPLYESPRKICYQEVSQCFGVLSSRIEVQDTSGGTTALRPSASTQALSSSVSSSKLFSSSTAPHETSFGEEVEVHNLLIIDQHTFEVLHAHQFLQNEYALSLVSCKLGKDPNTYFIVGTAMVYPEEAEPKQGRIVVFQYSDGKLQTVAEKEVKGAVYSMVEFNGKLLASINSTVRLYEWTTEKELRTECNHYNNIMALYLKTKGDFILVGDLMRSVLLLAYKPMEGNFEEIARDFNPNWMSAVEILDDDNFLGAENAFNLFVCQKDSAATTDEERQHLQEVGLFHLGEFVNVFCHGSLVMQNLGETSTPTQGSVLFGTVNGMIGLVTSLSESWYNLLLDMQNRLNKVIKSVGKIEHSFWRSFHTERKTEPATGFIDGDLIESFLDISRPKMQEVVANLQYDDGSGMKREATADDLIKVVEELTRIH

Sequence of IKZF1 (Q13422 whole entry): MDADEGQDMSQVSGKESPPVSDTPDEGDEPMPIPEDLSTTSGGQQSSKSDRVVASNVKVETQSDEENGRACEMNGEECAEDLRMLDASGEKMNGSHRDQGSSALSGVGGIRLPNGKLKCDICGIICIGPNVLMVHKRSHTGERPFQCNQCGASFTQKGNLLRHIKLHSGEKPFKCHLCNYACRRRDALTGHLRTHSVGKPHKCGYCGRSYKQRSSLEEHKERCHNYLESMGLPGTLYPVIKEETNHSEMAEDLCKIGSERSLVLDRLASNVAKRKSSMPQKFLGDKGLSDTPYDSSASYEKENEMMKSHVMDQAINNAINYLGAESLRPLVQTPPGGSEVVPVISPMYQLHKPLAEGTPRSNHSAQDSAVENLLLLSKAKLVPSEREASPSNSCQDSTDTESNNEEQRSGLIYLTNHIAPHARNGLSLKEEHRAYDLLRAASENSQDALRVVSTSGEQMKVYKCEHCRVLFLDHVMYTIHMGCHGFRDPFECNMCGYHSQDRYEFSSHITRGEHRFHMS
Sequence of IKZF1 (Q96SW2 whole entry): as the sequence (Q96SW2 whole entry) above
Sequence of IKZF1 (Q16531 2-1140 partner): as the sequence (Q16531 2-1140 partner) above
Sequence of CRBN/DDB1 (Q96SW2 whole entry, species assumed): as the sequence (Q96SW2 whole entry) above
Sequence of CRBN/DDB1 (Q16531 whole entry partner, species assumed): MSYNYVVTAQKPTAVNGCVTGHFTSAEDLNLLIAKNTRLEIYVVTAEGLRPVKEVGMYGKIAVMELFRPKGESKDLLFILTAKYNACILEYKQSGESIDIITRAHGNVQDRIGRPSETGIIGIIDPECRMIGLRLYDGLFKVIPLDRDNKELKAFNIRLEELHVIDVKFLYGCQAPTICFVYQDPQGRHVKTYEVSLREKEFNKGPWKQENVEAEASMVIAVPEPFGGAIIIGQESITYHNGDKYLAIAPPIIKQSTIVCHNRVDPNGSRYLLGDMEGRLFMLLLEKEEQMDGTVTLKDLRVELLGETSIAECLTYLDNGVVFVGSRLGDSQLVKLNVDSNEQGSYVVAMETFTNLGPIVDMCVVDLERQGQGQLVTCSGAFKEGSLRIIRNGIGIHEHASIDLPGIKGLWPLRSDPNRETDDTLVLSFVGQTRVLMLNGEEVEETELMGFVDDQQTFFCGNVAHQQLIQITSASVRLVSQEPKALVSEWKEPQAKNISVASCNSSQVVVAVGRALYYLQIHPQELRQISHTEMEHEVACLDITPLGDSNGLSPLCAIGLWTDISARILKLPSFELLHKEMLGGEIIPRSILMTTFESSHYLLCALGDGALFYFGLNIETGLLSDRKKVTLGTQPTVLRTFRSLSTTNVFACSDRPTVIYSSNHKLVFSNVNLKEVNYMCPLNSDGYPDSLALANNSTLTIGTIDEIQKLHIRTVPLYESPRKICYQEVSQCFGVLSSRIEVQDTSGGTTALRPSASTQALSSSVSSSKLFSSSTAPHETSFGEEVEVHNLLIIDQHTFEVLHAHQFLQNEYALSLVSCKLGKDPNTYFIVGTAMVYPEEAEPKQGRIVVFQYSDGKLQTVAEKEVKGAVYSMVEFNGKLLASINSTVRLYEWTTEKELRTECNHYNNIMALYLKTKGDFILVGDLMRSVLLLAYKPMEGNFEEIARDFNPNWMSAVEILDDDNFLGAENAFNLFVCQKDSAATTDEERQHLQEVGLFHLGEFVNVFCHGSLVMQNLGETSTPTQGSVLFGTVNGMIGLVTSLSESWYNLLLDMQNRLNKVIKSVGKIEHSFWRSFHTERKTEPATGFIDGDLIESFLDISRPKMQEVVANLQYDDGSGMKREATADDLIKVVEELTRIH

Take `O=C1CCC(N2Cc3cc(-c4cc(CN5CCCC5)c5[nH]ccc5n4)ccc3C2=O)C(=O)N1` (centres unmarked) [Example 76, 3-(1-oxo-5-(7-(pyrrolidin-1-ylmethyl)-1H-pyrrolo[3,2-b]pyridin-5-yl)isoindolin-2-yl) piperidine-2,6-dione]: the IC50 (in general, the point on the concentration scale where inhibition reaches its midpoint) in experiment [1] was in the range of 1000 to 5000 nM. In experiment [2], the DC50 is above 10000 nM and the Dmax fell in the range of 20 to 40%. Also, in experiment [3], the DC50 is below 1 nM and the Dmax is above 80%.

For `Cn1ncc2nc(-c3ccc4c(c3)CN(C3CCC(=O)NC3=O)C4=O)cc(CN3CCCC3)c21` (centres unmarked) [Example 310, 3-(5-(1-methyl-7-(pyrrolidin-1-ylmethyl)-1H-pyrazolo[4,3-b]pyridin-5-yl)-1-oxoisoindolin-2-yl) piperidine-2,6-dione], the IC50 in experiment [1] was 500 to 1000 nM. In experiment [2], the DC50 is above 10000 nM and the Dmax was below 20%. Further, in experiment [3], the DC50 is below 1 nM and the Dmax was above 80%.

For the compound `Cn1ccc2c(Cn3cnc4ccccc43)cc(-c3ccc4c(c3)CN(C3CCC(=O)NC3=O)C4=O)nc21` (centres unmarked) [Example 97, 3-(5-(4-((1H-benzo[d]imidazol-1-yl)methyl)-1-methyl-1H-pyrrolo[2,3-b]pyridin-6-yl)-1-oxoisoindolin-2-yl) piperidine-2,6-dione], the IC50 in experiment [1] is below 100 nM. Also, in experiment [2], the DC50 was above 10000 nM and the Dmax is below 20%. In addition, in experiment [3], the DC50 lay within 10 to 100 nM and the Dmax lay in the range of 40 to 60%.

`N#CC1CCN(Cc2cc(-c3ccc4c(c3)CN(C3CCC(=O)NC3=O)C4=O)nc3c2ccn3C2COC2)CC1` (centres unmarked) [Example 192, 1-((6-(2-(2,6-dioxopiperidin-3-yl)-1-oxoisoindolin-5-yl)-1-(oxetan-3-yl)-1H-pyrrolo[2,3-b]pyridin-4-yl)methyl) piperidine-4-carbonitrile]: in experiment [1], the IC50 lay within 1000 to 5000 nM. In experiment [2], the DC50 was above 10000 nM and the Dmax was below 20%. For the same compound, in experiment [3], the DC50 was 10 to 100 nM and the Dmax lay in the range of 60 to 80%.

Compound `O=C1CCC(N2Cc3cc(-c4cc(CN5CCC(F)C5)c5ccn(C6CC6)c5n4)ccc3C2=O)C(=O)N1` (centres unmarked) [Example 141, 3-(5-(1-cyclopropyl-4-((3-fluoropyrrolidin-1-yl)methyl)-1H-pyrrolo[2,3-b]pyridin-6-yl)-1-oxoisoindolin-2-yl) piperidine-2,6-dione] returned an IC50 in experiment [1] of 1000 to 5000 nM. Also, the DC50 in experiment [2] was above 10000 nM; in experiment [3], 1 to 10 nM. For the same compound, the Dmax in experiment [2] was below 20%; in experiment [3], above 80%.

With `O=C1CCC(N2Cc3cc(-c4cc(CN5CCCC5)c5c(ccn5CCO)n4)ccc3C2=O)C(=O)N1` (centres unmarked) [Example 175, 3-(5-(1-(2-hydroxyethyl)-7-(pyrrolidin-1-ylmethyl)-1H-pyrrolo[3,2-b]pyridin-5-yl)-1-oxoisoindolin-2-yl) piperidine-2,6-dione], the IC50 in experiment [1] was 1000 to 5000 nM. In addition, in experiment [2], the DC50 was above 10000 nM and the Dmax was below 20%. Also, in experiment [3], the DC50 fell in the range of 10 to 100 nM and the Dmax lay within 60 to 80%.

`O=C1CCC(N2Cc3cc(-c4cc(CN5CCC(O)CC5)c5cc[nH]c5n4)ccc3C2=O)C(=O)N1` (centres unmarked) [Example 125, 3-(5-(4-((4-hydroxypiperidin-1-yl)methyl)-1H-pyrrolo[2,3-b]pyridin-6-yl)-1-oxoisoindolin-2-yl) piperidine-2,6-dione]: the IC50 in experiment [1] was in the range of 100 to 500 nM. In experiment [2], the DC50 fell in the range of 100 to 1000 nM and the Dmax is 20 to 40%. Besides, in experiment [3], the DC50 is 10 to 100 nM and the Dmax is above 80%.

For the compound `O=C1CCC(N2Cc3cc(-c4cc(CN5CCCC5)c5c(n4)CCC5)ccc3C2=O)C(=O)N1` (centres unmarked) [Example 80, 3-(1-oxo-5-(4-(pyrrolidin-1-ylmethyl)-6,7-dihydro-5H-cyclopenta[b]pyridin-2-yl)isoindolin-2-yl) piperidine-2,6-dione], in experiment [1], the IC50 lay within 100 to 500 nM. The Dmax in experiment [2] lay in the range of 20 to 40%. For the same compound, in experiment [3], the DC50 is below 1 nM and the Dmax is above 80%.

In turn, `CC(c1cc(-c2ccc3c(c2)CN(C2CCC(=O)NC2=O)C3=O)nc2c1ccn2C)N1CCCC1` (centres unmarked) [Example 87, 3-(5-(1-methyl-4-(1-(pyrrolidin-1-yl)ethyl)-1H-pyrrolo[2,3-b]pyridin-6-yl)-1-oxoisoindolin-2-yl) piperidine-2,6-dione] showed an IC50 in experiment [1] of 100 to 500 nM. Also, in experiment [2], the DC50 is above 10000 nM and the Dmax is below 20%. For the same compound, in experiment [3], the DC50 lay in the range of 100 to 1000 nM and the Dmax was below 20%.

`COC1CCN(Cc2cc(-c3ccc4c(c3)CN(C3CCC(=O)NC3=O)C4=O)nc3c2ccn3C)CC1` (centres unmarked) [Example 102, 3-(5-(4-((4-methoxypiperidin-1-yl)methyl)-1-methyl-1H-pyrrolo[2,3-b]pyridin-6-yl)-1-oxoisoindolin-2-yl) piperidine-2,6-dione] had an IC50 in experiment [1] of 100 to 500 nM. Moreover, in experiment [2], the DC50 is 10 to 100 nM and the Dmax is 20 to 40%. In experiment [3], the DC50 was below 1 nM and the Dmax is above 80%.

Compound `O=C1CCC(N2Cc3cc(-c4cc(CN5CCCC5)c5cc[nH]c5n4)c(F)cc3C2=O)C(=O)N1` (centres unmarked) [Example 122, 3-(6-fluoro-1-oxo-5-(4-(pyrrolidin-1-ylmethyl)-1H-pyrrolo[2,3-b]pyridin-6-yl)isoindolin-2-yl) piperidine-2,6-dione] had an IC50 in experiment [1] of 1000 to 5000 nM. In addition, the DC50 in experiment [2] was 1 to 10 nM; in experiment [3] it was 100 to 1000 nM. In addition, the Dmax in experiment [2] and in experiment [3] was 20 to 40% in each case.

`O=C1CCC(N2Cc3cc(-c4cc(CN5CCCC5)c5c(n4)CCCC5)ccc3C2=O)C(=O)N1` (centres unmarked) [Example 79, 3-(1-oxo-5-(4-(pyrrolidin-1-ylmethyl)-5,6,7,8-tetrahydroquinolin-2-yl)isoindolin-2-yl) piperidine-2,6-dione] displayed a concentration for half-maximal inhibition (IC50) in experiment [1] of 100 to 500 nM. In experiment [2], the DC50 was above 10000 nM and the Dmax lay within 20 to 40%. Further, in experiment [3], the DC50 was below 1 nM and the Dmax was above 80%.

For `Cn1ccc2c(CN3CCCC3(C)C)cc(-c3ccc4c(c3)CN(C3CCC(=O)NC3=O)C4=O)nc21` (centres unmarked) [Example 113, 3-(5-(4-((2,2-dimethylpyrrolidin-1-yl)methyl)-1-methyl-1H-pyrrolo[2,3-b]pyridin-6-yl)-1-oxoisoindolin-2-yl) piperidine-2,6-dione], the IC50 in experiment [1] fell in the range of 1000 to 5000 nM. Further, in experiment [2], the DC50 lay in the range of 10 to 100 nM and the Dmax was 20 to 40%. Moreover, in experiment [3], the DC50 is below 1 nM and the Dmax fell in the range of 60 to 80%.

Turning to `Cn1ccc2c(CN3CCC(C(F)(F)F)CC3)cc(-c3ccc4c(c3)CN(C3CCC(=O)NC3=O)C4=O)nc21` (centres unmarked) [Example 90, 3-(5-(1-methyl-4-((4-(trifluoromethyl)piperidin-1-yl)methyl)-1H-pyrrolo[2,3-b]pyridin-6-yl)-1-oxoisoindolin-2-yl) piperidine-2,6-dione], the IC50 in experiment [1] was in the range of 100 to 500 nM. In addition, in experiment [2], the DC50 fell in the range of 10 to 100 nM and the Dmax is 20 to 40%. Besides, in experiment [3], the DC50 fell in the range of 1 to 10 nM and the Dmax is above 80%.

As for `O=C1CCC(N2Cc3cc(-c4cc(CN5CCCC5)c5ccn(C6CCOCC6)c5n4)ccc3C2=O)C(=O)N1` (centres unmarked) [Example 171, 3-(1-oxo-5-(4-(pyrrolidin-1-ylmethyl)-1-(tetrahydro-2H-pyran-4-yl)-1H-pyrrolo[2,3-b]pyridin-6-yl)isoindolin-2-yl) piperidine-2,6-dione], the IC50 in experiment [1] lay within 100 to 500 nM. Moreover, in experiment [2], the DC50 was above 10000 nM and the Dmax was below 20%. In experiment [3], the DC50 lay within 1 to 10 nM and the Dmax was in the range of 60 to 80%.

Consider `O=C1CCC(N2Cc3cc(-c4cc(CN5CCCC5)c5ncn(C6CS(=O)(=O)C6)c5n4)ccc3C2=O)C(=O)N1` (centres unmarked) [Example 225, 3-(5-(3-(1,1-dioxidothietan-3-yl)-7-(pyrrolidin-1-ylmethyl)-3H-imidazo[4,5-b]pyridin-5-yl)-1-oxoisoindolin-2-yl) piperidine-2,6-dione], for which the IC50 in experiment [1] fell in the range of 500 to 1000 nM. For the same compound, in experiment [2], the DC50 was above 10000 nM and the Dmax is below 20%. In experiment [3], the DC50 is below 1 nM and the Dmax is 20 to 40%.

The compound `O=C1CCC(N2Cc3cc(-c4cc(CN5CCC(F)C5)c5ccn(C6COC6)c5n4)ccc3C2=O)C(=O)N1` (centres unmarked) [Example 157, 3-(5-(4-((3-fluoropyrrolidin-1-yl)methyl)-1-(oxetan-3-yl)-1H-pyrrolo[2,3-b]pyridin-6-yl)-1-oxoisoindolin-2-yl) piperidine-2,6-dione] registered an IC50 in experiment [1] of 500 to 1000 nM. Further, in experiment [2], the DC50 was above 10000 nM and the Dmax is below 20%. Moreover, in experiment [3], the DC50 lay in the range of 1 to 10 nM and the Dmax was above 80%.

Turning to `CN(C)CC1CCN(Cc2cc(-c3ccc4c(c3)CN(C3CCC(=O)NC3=O)C4=O)nc3[nH]ccc23)C1` (centres unmarked) [Example 123], the IC50 in experiment [1] lay in the range of 100 to 500 nM. In experiment [2], the DC50 was 10 to 100 nM and the Dmax lay within 20 to 40%. Besides, in experiment [3], the DC50 was in the range of 1 to 10 nM and the Dmax is above 80%.
